Blank lines part the entries; values can stand above or below the molecule they belong to.
Legend:
[1] = molecular target: T1, Receptor-type tyrosine-protein kinase FLT3 (Homo sapiens, UniProt P36888); test: Selectivity interaction (NanoBRET assay (HEK293T cells)) EUB0001559a FLT3; format: cell-based, HEK-293T
T1 sequence (P36888 whole entry): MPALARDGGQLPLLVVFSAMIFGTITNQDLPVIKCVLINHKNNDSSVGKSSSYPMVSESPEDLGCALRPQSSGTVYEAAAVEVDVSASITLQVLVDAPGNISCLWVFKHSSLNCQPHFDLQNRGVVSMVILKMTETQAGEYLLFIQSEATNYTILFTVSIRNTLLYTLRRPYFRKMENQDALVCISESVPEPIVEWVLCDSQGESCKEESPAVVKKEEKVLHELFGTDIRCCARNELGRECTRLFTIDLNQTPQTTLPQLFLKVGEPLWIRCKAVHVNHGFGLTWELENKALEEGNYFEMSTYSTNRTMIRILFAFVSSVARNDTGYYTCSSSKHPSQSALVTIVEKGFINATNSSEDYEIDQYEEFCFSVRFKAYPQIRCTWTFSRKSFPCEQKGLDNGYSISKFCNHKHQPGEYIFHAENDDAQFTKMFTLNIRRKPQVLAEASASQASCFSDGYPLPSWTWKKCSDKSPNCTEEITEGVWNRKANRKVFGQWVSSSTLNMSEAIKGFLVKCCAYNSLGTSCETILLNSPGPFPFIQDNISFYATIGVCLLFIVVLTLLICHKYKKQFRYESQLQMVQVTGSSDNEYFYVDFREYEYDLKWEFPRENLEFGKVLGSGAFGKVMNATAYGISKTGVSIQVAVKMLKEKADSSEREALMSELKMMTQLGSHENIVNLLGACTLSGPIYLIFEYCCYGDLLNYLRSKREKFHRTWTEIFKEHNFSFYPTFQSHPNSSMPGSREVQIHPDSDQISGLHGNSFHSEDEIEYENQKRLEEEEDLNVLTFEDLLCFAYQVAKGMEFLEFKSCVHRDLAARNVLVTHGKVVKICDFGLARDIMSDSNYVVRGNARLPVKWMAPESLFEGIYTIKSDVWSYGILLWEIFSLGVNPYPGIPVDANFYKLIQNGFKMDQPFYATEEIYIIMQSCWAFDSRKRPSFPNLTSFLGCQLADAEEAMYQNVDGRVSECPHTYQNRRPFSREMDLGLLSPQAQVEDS

[2] = molecular target: T2, Protein arginine N-methyltransferase 9 (Homo sapiens, UniProt Q6P2P2); test: Selectivity interaction (Scintillation proximity assays) EUB0000255b PRMT9
T2 sequence (Q6P2P2 whole entry): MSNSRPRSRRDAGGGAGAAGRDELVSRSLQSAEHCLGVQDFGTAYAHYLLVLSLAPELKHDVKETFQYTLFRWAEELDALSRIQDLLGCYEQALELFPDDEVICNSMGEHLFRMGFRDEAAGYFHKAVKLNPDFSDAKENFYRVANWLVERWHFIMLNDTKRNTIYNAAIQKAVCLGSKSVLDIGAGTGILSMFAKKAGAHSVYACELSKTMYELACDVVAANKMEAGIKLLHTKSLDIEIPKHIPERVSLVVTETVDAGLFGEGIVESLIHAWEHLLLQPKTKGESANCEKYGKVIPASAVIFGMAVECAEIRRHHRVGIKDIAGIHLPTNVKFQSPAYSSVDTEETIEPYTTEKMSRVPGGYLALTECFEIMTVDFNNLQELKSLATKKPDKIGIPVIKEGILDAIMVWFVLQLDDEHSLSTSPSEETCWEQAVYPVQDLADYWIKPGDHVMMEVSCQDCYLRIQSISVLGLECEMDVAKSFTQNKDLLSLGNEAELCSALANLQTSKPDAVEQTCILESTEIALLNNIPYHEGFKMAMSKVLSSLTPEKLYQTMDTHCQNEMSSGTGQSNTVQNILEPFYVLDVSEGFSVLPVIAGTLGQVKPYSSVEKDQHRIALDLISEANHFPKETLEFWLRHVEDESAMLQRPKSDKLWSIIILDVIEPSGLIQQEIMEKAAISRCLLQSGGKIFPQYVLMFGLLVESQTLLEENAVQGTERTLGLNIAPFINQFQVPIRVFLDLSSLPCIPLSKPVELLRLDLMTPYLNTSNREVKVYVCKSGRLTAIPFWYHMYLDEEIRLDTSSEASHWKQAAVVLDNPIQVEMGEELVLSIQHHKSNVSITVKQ

[3] = molecular target: Protein-tyrosine kinase 2-beta (Homo sapiens) (UniProt Q14289); test: Selectivity interaction (ActivX KiNativ screen (kinase selectivity in THP-1 cell lysates)) EUB0000639a PTK2B; format: subcellular; conditions: lysate
[4] = molecular target: Phosphatidylinositol 4-kinase beta (Homo sapiens, UniProt Q9UBF8); test: Selectivity interaction (KinomeScan (DiscoverX)) EUB0000092b PI4KB; conditions: at 10 µM
Chain of Phosphatidylinositol 4-kinase beta (Q9UBF8 2-816 limits assumed): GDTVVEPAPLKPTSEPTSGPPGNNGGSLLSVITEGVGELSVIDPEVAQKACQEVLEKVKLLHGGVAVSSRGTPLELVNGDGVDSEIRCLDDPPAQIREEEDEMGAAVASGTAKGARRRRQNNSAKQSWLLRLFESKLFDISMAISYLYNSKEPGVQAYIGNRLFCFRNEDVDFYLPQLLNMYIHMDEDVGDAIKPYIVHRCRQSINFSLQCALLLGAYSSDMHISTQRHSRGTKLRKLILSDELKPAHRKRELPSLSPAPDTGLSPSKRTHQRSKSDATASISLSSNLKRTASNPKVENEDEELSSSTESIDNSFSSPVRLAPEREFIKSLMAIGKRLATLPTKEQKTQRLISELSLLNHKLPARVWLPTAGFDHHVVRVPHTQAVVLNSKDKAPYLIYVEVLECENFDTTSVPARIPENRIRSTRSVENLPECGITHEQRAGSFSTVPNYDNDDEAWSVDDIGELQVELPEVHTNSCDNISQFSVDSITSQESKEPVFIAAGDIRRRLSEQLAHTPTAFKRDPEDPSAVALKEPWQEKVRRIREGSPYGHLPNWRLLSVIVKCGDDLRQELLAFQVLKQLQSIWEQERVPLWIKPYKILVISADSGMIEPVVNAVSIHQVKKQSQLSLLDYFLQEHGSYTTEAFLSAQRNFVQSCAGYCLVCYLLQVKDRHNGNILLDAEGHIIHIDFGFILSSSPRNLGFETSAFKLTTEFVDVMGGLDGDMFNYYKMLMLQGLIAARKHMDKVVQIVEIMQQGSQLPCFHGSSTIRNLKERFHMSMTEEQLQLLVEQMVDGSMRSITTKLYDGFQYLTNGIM

Chain of Protein-tyrosine kinase 2-beta (Homo sapiens) (Q14289 whole entry, looked up): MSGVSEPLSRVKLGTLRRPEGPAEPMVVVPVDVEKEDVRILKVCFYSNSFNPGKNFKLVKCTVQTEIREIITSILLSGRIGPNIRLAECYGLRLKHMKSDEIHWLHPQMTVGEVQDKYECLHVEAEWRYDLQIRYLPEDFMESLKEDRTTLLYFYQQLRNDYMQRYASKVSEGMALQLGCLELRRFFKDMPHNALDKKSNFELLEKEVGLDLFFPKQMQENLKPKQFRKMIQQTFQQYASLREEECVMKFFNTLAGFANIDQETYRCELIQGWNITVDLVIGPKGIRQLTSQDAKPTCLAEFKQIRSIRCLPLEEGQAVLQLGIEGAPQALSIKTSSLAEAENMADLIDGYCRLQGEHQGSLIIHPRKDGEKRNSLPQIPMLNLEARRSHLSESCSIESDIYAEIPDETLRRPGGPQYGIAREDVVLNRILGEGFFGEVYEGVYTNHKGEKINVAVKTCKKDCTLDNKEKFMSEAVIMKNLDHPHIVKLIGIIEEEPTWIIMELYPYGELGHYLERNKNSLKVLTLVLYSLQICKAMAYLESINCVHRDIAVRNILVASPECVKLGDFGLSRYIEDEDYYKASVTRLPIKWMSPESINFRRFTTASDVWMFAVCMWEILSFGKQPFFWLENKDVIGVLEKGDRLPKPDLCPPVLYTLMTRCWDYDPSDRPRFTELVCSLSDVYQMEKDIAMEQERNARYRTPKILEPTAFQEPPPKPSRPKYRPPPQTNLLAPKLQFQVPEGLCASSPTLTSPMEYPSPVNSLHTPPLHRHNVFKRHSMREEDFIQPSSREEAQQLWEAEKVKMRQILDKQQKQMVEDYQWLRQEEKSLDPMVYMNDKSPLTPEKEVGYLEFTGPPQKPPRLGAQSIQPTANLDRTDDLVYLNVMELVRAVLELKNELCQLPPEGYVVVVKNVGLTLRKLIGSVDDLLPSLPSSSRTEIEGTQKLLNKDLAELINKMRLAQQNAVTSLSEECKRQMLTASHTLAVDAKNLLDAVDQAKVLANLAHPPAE

EC50 [1]: 3.6 mM
Compound: CN(C(=O)c1cnn2cccnc12)c1cc2c(cc1N1CCOCC1)C(=O)N(C[C@@H](F)C(C)(C)O)C2

Compound: COCCN1CCC(c2cc(CN(C)C(=O)c3cccc(Oc4ccccc4)c3)ccn2)CC1
IC50 [2]: > 0.01 mM

% of inhibition ([3]; at 0.01 µM): -13.4%
% of inhibition ([3]; at 0.04 µM): 9.7%
% of inhibition ([3]; at 0.2 µM): -2.6%
% of inhibition ([3]; at 1 µM): -0.1%
% of inhibition ([3]; at 5 µM): -10.1%
Compound: CC[C@@H]1[C@H](F)C(=O)N[C@@H]1COc1nccc2cc(C(N)=O)c(OC)cc12 [ZIMLOVISERTIB]

Compound: CCC(=O)N1CCN(c2ccc(-n3c(=O)ccc4cnc5ccc(-c6cnc7ccccc7c6)cc5c43)cc2C(F)(F)F)CC1
% of control [4]: 96%
